Test results: the NIST ThermoML archive (doi:10.1016/j.fluid.2012.09.026)
“And” between values parts separate entries of the source, which are not always exact repeats. Equal entries are not always repeated.

Columns and labels:
[1] = for vapor or sublimation pressure: Closed cell (Static) method
[2] = molar heat capacity at constant volume; settings: Vacuum adiabatic calorimetry

CCCCO [butan-1-ol]
[1], Liquid
Settings	vapor or sublimation pressure
496.62 K	1529 kPa
497.54 K	1549 kPa
497.6 K	1555 kPa
497.65 K	1555 kPa
497.7 K	1559 kPa
497.97 K	1559 kPa
506.74 K	1834 kPa
506.84 K	1834 kPa
507.01 K	1854 kPa and 1844 kPa
507.23 K	1844 kPa
507.25 K	1844 kPa
507.3 K	1854 kPa
518.64 K	2241 kPa
518.91 K	2246 kPa
518.99 K	2248 kPa
519.06 K	2248 kPa
519.2 K	2252 kPa
528.31 K	2622 kPa
531.38 K	2776 kPa
532.65 K	2804 kPa
533.03 K	2834 kPa
533.2 K	2834 kPa
533.4 K	2838 kPa
537.47 K	3029 kPa
539.69 K	3127 kPa
541.16 K	3205 kPa
541.95 K	3245 kPa
542.81 K	3295 kPa
543.19 K	3293 kPa
543.3 K	3315 kPa
543.89 K	3315 kPa
546.79 K	3456 kPa
548.49 K	3579 kPa
550.45 K	3647 kPa
555.53 K	3983 kPa
555.6 K	3945 kPa
555.7 K	3941 kPa
556.16 K	3963 kPa
557.65 K	4075 kPa
559.05 K	4168 kPa
559.33 K	4181 kPa

Settings	mass density [kg/m3]	molar heat capacity at constant volume [J/K/mol]	specific volume [m3/kg]
[1], 520 K, Gas, isochoric method	–	–	0.01653
[1], 520 K, Liquid, isochoric method	–	–	0.001879
[1], 530 K, Gas, isochoric method	–	–	0.01351
[1], 530 K, Liquid, isochoric method	–	–	0.001974
[1], 533.45 K, Gas, isochoric method	–	–	0.01243
[1], 533.45 K, Liquid, isochoric method	–	–	0.002001
[1], 540 K, Gas, isochoric method	–	–	0.01078
[1], 540 K, Liquid, isochoric method	–	–	0.002103
[1], 540.57 K, Liquid, Isochoric Breaking Point	470	–	–
[1], 547.36 K, Gas, Isochoric Breaking Point	113.76	–	–
[1], 550 K, Gas, isochoric method	–	–	0.008333
[1], 550 K, Liquid, isochoric method	–	–	0.002288
[1], 558.65 K, Gas, Isochoric Breaking Point	167.7	–	–
[1], 560 K, Gas, isochoric method	–	–	0.005682
[1], 560 K, Liquid, isochoric method	–	–	0.002717
[1], 561 K, Gas, isochoric method	–	–	0.005319
[1], 561 K, Liquid, isochoric method	–	–	0.002792
[1], 561.08 K, Liquid, Isochoric Breaking Point	345.9	–	–
[1], 561.85 K, Gas, Isochoric Breaking Point	203.9	–	–
[1], 562 K, Gas, isochoric method	–	–	0.004879
[1], 562 K, Liquid, isochoric method	–	–	0.002985
[1], 563 K, Gas, isochoric method	–	–	0.0046
[1], 563 K, Liquid, isochoric method	–	–	0.003108
[1], 563.04 K, Liquid, Isochoric Breaking Point	270	–	–
[2], 520 K, Gas, Specific volume=0.016529 m3/kg	–	236.45	–
[2], 520 K, Liquid, Specific volume=0.001879 m3/kg	–	220.88	–
[2], 530 K, Gas, Specific volume=0.013513 m3/kg	–	243.12	–
[2], 530 K, Liquid, Specific volume=0.001974 m3/kg	–	220.22	–
[2], 533.45 K, Gas, Specific volume=0.012425 m3/kg	–	246.16	–
[2], 533.45 K, Liquid, Specific volume=0.002001 m3/kg	–	220.22	–
[2], 540 K, Gas, Specific volume=0.010776 m3/kg	–	252.01	–
[2], 540 K, Liquid, Specific volume=0.002103 m3/kg	–	220.14	–
[2], 550 K, Gas, Specific volume=0.008333 m3/kg	–	260.91	–
[2], 550 K, Liquid, Specific volume=0.002288 m3/kg	–	220.88	–
[2], 560 K, Gas, Specific volume=0.005682 m3/kg	–	281.74	–
[2], 560 K, Liquid, Specific volume=0.002717 m3/kg	–	228.37	–
[2], 561 K, Gas, Specific volume=0.005319 m3/kg	–	286.85	–
[2], 561 K, Liquid, Specific volume=0.002792 m3/kg	–	235.71	–
[2], 562 K, Gas, Specific volume=0.004879 m3/kg	–	294.26	–
[2], 562 K, Liquid, Specific volume=0.002985 m3/kg	–	247.57	–
[2], 563 K, Gas, Specific volume=0.0046 m3/kg	–	303.9	–
[2], 563 K, Liquid, Specific volume=0.003108 m3/kg	–	258.68	–
[2], 563.21 K, Fluid (supercritical or subcritical phases), Mass density=270 kg/m3	–	356.16	–
[2], 563.39 K, Fluid (supercritical or subcritical phases), Mass density=270 kg/m3	–	317.24	–
[2], 563.57 K, Fluid (supercritical or subcritical phases), Mass density=270 kg/m3	–	306.86	–
[2], 564.81 K, Fluid (supercritical or subcritical phases), Mass density=270 kg/m3	–	294.63	–
[2], 564.99 K, Fluid (supercritical or subcritical phases), Mass density=270 kg/m3	–	292.04	–
[2], 565.17 K, Fluid (supercritical or subcritical phases), Mass density=270 kg/m3	–	290.19	–
[2], 566.6 K, Fluid (supercritical or subcritical phases), Mass density=270 kg/m3	–	282.4	–
[2], 566.77 K, Fluid (supercritical or subcritical phases), Mass density=270 kg/m3	–	280.18	–
[2], 566.95 K, Fluid (supercritical or subcritical phases), Mass density=270 kg/m3	–	279.81	–
[2], 567.13 K, Fluid (supercritical or subcritical phases), Mass density=270 kg/m3	–	277.59	–
[2], 569.09 K, Fluid (supercritical or subcritical phases), Mass density=270 kg/m3	–	269.8	–
[2], 569.26 K, Fluid (supercritical or subcritical phases), Mass density=270 kg/m3	–	269.06	–
[2], 569.44 K, Fluid (supercritical or subcritical phases), Mass density=270 kg/m3	–	268.32	–
[2], 573.52 K, Fluid (supercritical or subcritical phases), Mass density=270 kg/m3	–	259.06	–
[2], 573.67 K, Fluid (supercritical or subcritical phases), Mass density=270 kg/m3	–	257.94	–
[2], 582.51 K, Fluid (supercritical or subcritical phases), Mass density=270 kg/m3	–	246.83	–
[2], 582.69 K, Fluid (supercritical or subcritical phases), Mass density=270 kg/m3	–	246.08	–
[2], 582.86 K, Fluid (supercritical or subcritical phases), Mass density=270 kg/m3	–	246.08	–
[2], 583.22 K, Fluid (supercritical or subcritical phases), Mass density=270 kg/m3	–	245.34	–
[2], 590.92 K, Fluid (supercritical or subcritical phases), Mass density=270 kg/m3	–	240.15	–
[2], 591.07 K, Fluid (supercritical or subcritical phases), Mass density=270 kg/m3	–	240.52	–
[2], 591.23 K, Fluid (supercritical or subcritical phases), Mass density=270 kg/m3	–	239.41	–
[2], 591.62 K, Fluid (supercritical or subcritical phases), Mass density=270 kg/m3	–	239.41	–
[2], 598.76 K, Fluid (supercritical or subcritical phases), Mass density=270 kg/m3	–	235.34	–
[2], 599.1 K, Fluid (supercritical or subcritical phases), Mass density=270 kg/m3	–	236.08	–
[2], 599.28 K, Fluid (supercritical or subcritical phases), Mass density=270 kg/m3	–	235.71	–
[2], 599.63 K, Fluid (supercritical or subcritical phases), Mass density=270 kg/m3	–	234.97	–
[2], 605.17 K, Fluid (supercritical or subcritical phases), Mass density=270 kg/m3	–	232.74	–
[2], 605.35 K, Fluid (supercritical or subcritical phases), Mass density=270 kg/m3	–	232.37	–
[2], 606.21 K, Fluid (supercritical or subcritical phases), Mass density=270 kg/m3	–	232	–
[2], 606.56 K, Fluid (supercritical or subcritical phases), Mass density=270 kg/m3	–	232	–
[2], 609.49 K, Fluid (supercritical or subcritical phases), Mass density=270 kg/m3	–	231.26	–
[2], 609.67 K, Fluid (supercritical or subcritical phases), Mass density=270 kg/m3	–	230.52	–
[2], 609.84 K, Fluid (supercritical or subcritical phases), Mass density=270 kg/m3	–	230.89	–
[2], 621.18 K, Fluid (supercritical or subcritical phases), Mass density=270 kg/m3	–	227.55	–
[2], 621.53 K, Fluid (supercritical or subcritical phases), Mass density=270 kg/m3	–	226.81	–
[2], 622.22 K, Fluid (supercritical or subcritical phases), Mass density=270 kg/m3	–	226.07	–
[2], 637.42 K, Fluid (supercritical or subcritical phases), Mass density=270 kg/m3	–	225.33	–
[2], 637.77 K, Fluid (supercritical or subcritical phases), Mass density=270 kg/m3	–	223.11	–

[1], isochoric method
Settings	mass density [kg/m3]
528.31 K, 2642 kPa, Gas	113.76
531.38 K, 2775 kPa, Gas	167.7
533.03 K, 2834 kPa, Gas	203.9
539.69 K, 3127 kPa, Gas	113.76
543.3 K, 3315 kPa, Gas	113.76
543.89 K, 3315 kPa, Gas	167.7
546.79 K, 3456 kPa, Gas	113.76
548.15 K, 3531 kPa, Gas	113.76
548.49 K, 3579 kPa, Gas	203.9
550.05 K, 4256 kPa, Liquid	470
550.45 K, 3647 kPa, Gas	167.7
551.66 K, 3610 kPa, Gas	113.76
555.53 K, 3893 kPa, Gas	167.7
555.7 K, 3941 kPa, Gas	203.9
557.65 K, 4020 kPa, Gas	167.7
558.64 K, 3788 kPa, Gas	113.76
559.33 K, 4118 kPa, Gas	203.9
561.09 K, 6138 kPa, Liquid	470
562.14 K, 4275 kPa, Gas	167.7
563.04 K, 4340 kPa, Gas	203.9
564.02 K, 4461 kPa, Liquid	270
565.29 K, 4559 kPa, Liquid	345.9
568.44 K, 4598 kPa, Gas	203.9
569.15 K, 4559 kPa, Gas	167.7
569.8 K, 4775 kPa, Liquid	270
572.54 K, 5138 kPa, Liquid	345.9
574.48 K, 4178 kPa, Gas	113.76
577.73 K, 5059 kPa, Gas	203.9
580.8 K, 5000 kPa, Gas	167.7
582.21 K, 5647 kPa, Liquid	270
583.19 K, 6118 kPa, Liquid	345.9
584.19 K, 10275 kPa, Liquid	470
588.79 K, 5613 kPa, Gas	203.9
590.87 K, 4586 kPa, Gas	113.76
593.16 K, 5452 kPa, Gas	167.7
593.16 K, 6393 kPa, Liquid	270
600.42 K, 6162 kPa, Gas	203.9
604.17 K, 5852 kPa, Gas	167.7
605.17 K, 4925 kPa, Gas	113.76
605.88 K, 7197 kPa, Liquid	270
606.77 K, 8197 kPa, Liquid	345.9
614.97 K, 6834 kPa, Gas	203.9
616.27 K, 6275 kPa, Gas	167.7
616.28 K, 5197 kPa, Gas	113.76
